Results from patent US20250304593A1 (Skyhawk Therapeutics, Inc., priority 2022, published 2025).
pEC50, pIC50: −log10 of the molar value.

Columns and labels:
[1] = system: ATXN3 transcripts containing exon 4 (E4E5); experiment: ATXN3 quantitative splicing assay (qPCR, E4E5 primers/probe detecting transcripts containing exon 4); format: cell-based; settings: Homo sapiens, SK-N-MC cells, 24 h treatment
Description: Human neuroblastoma SK-N-MC cells were plated in 384-well plates at 20,000 cells/well. Twenty-four hours after plating, cells were treated with compounds for 24 h at appropriate concentrations ranging from 30.M to 0.6 nM (0.300 DMS0). Treated cells were lysed in 15.L of lysis buffer, and cDNA was synthesized using the Fast Advanced Cells-to-Ct kit. Two L of each cDNA was used in qPCR reactions to confirm the exon 4 skipped transcripts of ATXN3. A second set of primers/probe E4E5 was used to detect the transcripts containing exon 4. The third set of primers/probe E8E9 was used to detect total gene level of ATXN3. The qPCR reactions were prepared in 384-well plates in 10 L volume, using TaqMan™ Fast Advanced Master Mix with primers and probes shown in the table below. Reactions were run in a Quant Studio 6 qPCR instrument with default settings.
The primers and probes are listed below in Table 4.

total ATXN3 protein = experiment: ATXN3 total protein assay (Mesoscale Discovery); format: cell-based, Human; settings: SK-N-MC cells, 48 hours incubation, MSD assay; read-out: ATXN3 Potency - Protein IC50
Description: Human neuroblastoma SK-N-MC cells were seeded at 10,000 cells/well in 384 well plates one day prior to compound treatment. The concentrations of compounds were tested at appropriate doses ranging from 30 µM to 0.6 nM. After incubation for 48 hours, the cells were lysed with 25.L of lysis buffer containing protease inhibitors, and total ATXN3 protein levels were assessed by Mesoscale Discovery (MSD) assay developed with one pair of anti-ATXN3 antibodies. The capture and detect antibodies were raised in mouse and rabbit respectively. Anti-rabbit MSD-ST antibody was used for secondary antibody.
ATXN3 recombinant protein was used for standards. The readouts were captured with 35 μL of MSD read buffer and multi-array 384-well high binding plates.

ATXN3-HiBiT protein = experiment: ATXN3 HiBiT assay (luminescence, Kelly-ATXN3-HiBiT cell line); format: cell-based; settings: Kelly-ATXN3-HiBiT cells, read out 48 h after addition of compound
Source text: To monitor ATXN3 protein levels by luminescence, a Kelly-ATXN3-HiBiT cell line with homozygous knock-in of HiBiT at the C-terminus of the endogenous ATXN3 gene was used (knock-in of the HiBiT-tag coding sequence SEQ ID NO. 14: 5′[…]3′ into exon 11 of ATXN3 -position 1114 of ATXN3 RefSeq NM_004993.6). Manipulations of the Kelly-ATXN3-HiBiT cell line that result in downregulation of the ATXN3-HiBiT protein (through modulation of ATXN3-HiBiT pre-mRNA splicing) can be followed by monitoring the luminescence signal of the HiBiT tag using the Nano Glo HiBiT Lytic Detection System (Promega, #N3050). Kelly-ATXN3-HiBiT cells were maintained in RPMI 1640 w/Glutamax (Gibco, #61870010), 10% FBS (Sigma Aldrich, #F8687), 1% Penicillin/Streptomycin (Gibco, #15140-122) at 37° C., 5% CO2. To assess HiBiT-luminescence signal upon compound treatment, 2000 Kelly-ATXN3-HiBiT cells were seeded per well in 384 plate format. Compounds were added 24 h after seeding. ATXN3-HiBiT-luminescence signal was read out 48 h after addition of the compound using the Nano Glo HiBiT Lytic Detection System (Promega, #N3050) according to the manufacturer's instructions. To control for cell viability, an identically prepared sister plate was read out with the CellTiter-Glo® 2.0 Assay (Promega, #G9243) according to the manufacturer's instructions. Fold changes of ATXN3-HiBiT-luminescence and of CellTiter-Glo viability signals were calculated relative to a DMSO control condition.

| Compound | pIC50 [1] | pIC50 (total ATXN3 protein) | pEC50 (ATXN3-HiBiT protein) |
| --- | --- | --- | --- |
| C[C@H](F)[C@H](N)Cc1oc2c(NCc3cccs3)nc(Cl)nc2c1-c1ncco1 [Compound 34, 6-[(2R,3S)-2-amino-3-fluorobutyl]-2-chloro-7-(1,3-oxazol-2-yl)-N-(thiophen-2-ylmethyl)furo[3,2-d]pyrimidin-4-amine] | 5.30 to 6.30 | – | – |
| C[C@H](N)Cc1oc2c(NCc3ccco3)nc(Cl)nc2c1Br [Compound 33, 2-[(S)-2-aminopropyl]-3-bromo-5-chloro-7-(furfur-ylamino)-1-oxa-4,6-diaza-indene] | 6.30 to 7.00 | 7.00 to 11.00 | 7.00 to 11.00 |
| C[C@H](F)[C@H](N)Cc1oc2c(NCc3ccco3)nc(Cl)nc2c1Br [Compound 14, 2-[(2R,3S)-2-amino-3-fluoro-butyl]-3-bromo-5-chloro-7-(furfurylamino)-1-oxa-4,6-diazaindene] | 7.00 to 11.00 | 7.00 to 11.00 | 7.00 to 11.00 |
| C[C@H](N)Cc1oc2c(NCc3cccs3)nc(Cl)nc2c1Br [Compound 32, 6-[(2S)-2-aminopropyl]-7-bromo-2-chloro-N-(thiophen-2-ylmethyl)furo[3,2-d]pyrimidin-4-amine] | 6.30 to 7.00 | 6.30 to 7.00 | 6.30 to 7.00 |
| Clc1nc(NCc2ccccc2)c2occc2n1 [Compound 4, N-benzyl-2-chlorofuro[3,2-d]pyrimidin-4-amine] | 4.40 to 5.00 | 4.40 to 5.00 | – |
| C[C@H](F)[C@H](N)Cc1oc2c(NCc3cccs3)nc(Cl)nc2c1Br [Compound 15, 2-[(2R,3S)-2-amino-3-fluoro-butyl]-3-bromo-5-chloro-7-thenylamino-1-oxa-4,6-diazaindene] | 7.00 to 11.00 | 6.30 to 7.00 | 6.30 to 7.00 |
| C#Cc1c(C[C@@H](N)[C@H](C)F)oc2c(NCc3ccco3)nc(Cl)nc12 [Compound 12, 2-[(2R,3S)-2-amino-3-fluoro-butyl]-5-chloro-3-ethynyl-7-(furfurylamino)-1-oxa-4,6-diazaindene] | 7.00 to 11.00 | 7.00 to 11.00 | 7.00 to 11.00 |
| C[C@H](F)[C@H](N)Cc1oc2c(NCc3ccccc3)nc(Cl)nc2c1Br [Compound 19, 2-[(2R,3S)-2-amino-3-fluoro-butyl]-7-benzylamino-3-bromo-5-chloro-1-oxa-4,6-diazaindene] | 6.30 to 7.00 | 6.30 to 7.00 | 5.30 to 6.30 |
| Cc1coc2c(NCc3nccs3)nc(Cl)nc12 [Compound 9, [(1,3-thiazol-2-yl)methyl](5-chloro-3-methyl-1-oxa-4,6-diaza-7-indenyl)amine] | 4.40 to 5.00 | 4.40 to 5.00 | – |
| C#Cc1c(C[C@@H](N)[C@H](C)F)oc2c(NCc3cccs3)nc(Cl)nc12 [Compound 13, 6-[(2R,3S)-2-amino-3-fluorobutyl]-2-chloro-7-ethynyl-N-(thiophen-2-ylmethyl)furo[3,2-d]pyrimidin-4-amine] | 7.00 to 11.00 | 7.00 to 11.00 | 7.00 to 11.00 |
| C/C=C/c1cc2nc(Cl)nc(NCc3ccncc3)c2o1 [Compound 6] | 4.40 to 5.00 | 4.40 to 5.00 | – |
| C[C@H](F)[C@H](N)Cc1oc2c(NCc3ccco3)nc(Cl)nc2c1Cl [Compound 16, 2-[(2R,3S)-2-amino-3-fluoro-butyl]-3,5-dichloro-7-(furfur-ylamino)-1-oxa-4,6-diaza-indene] | 7.00 to 11.00 | 6.30 to 7.00 | 7.00 to 11.00 |
| C[C@H](F)[C@H](N)Cc1oc2c(NCc3nccs3)nc(Cl)nc2c1Br [Compound 18, 2-[(2R,3S)-2-amino-3-fluoro-butyl]-3-bromo-5-chloro-7-{[(1,3-thiazol-2-yl)methyl]-amino}-1-oxa-4,6-diaza-indene] | 6.30 to 7.00 | 6.30 to 7.00 | 6.30 to 7.00 |
| Cc1c(C[C@H](C)N)oc2c(NCc3nccs3)nc(Cl)nc12 [Compound 7] | 4.40 to 5.00 | 4.40 to 5.00 | – |
| CC(N)Cc1cc2nc(Cl)nc(NCc3ccncc3)c2o1 (centres unmarked) [Compound 1, 6-(2-aminopropyl)-2-chloro-N-(pyridin-4-ylmethyl)furo [3,2-d]pyrimidin-4-amine] | 4.40 to 5.00 | 4.40 to 5.00 | – |
| C#Cc1nc(NCc2cccs2)c2oc(C[C@@H](N)[C@H](C)F)c(Br)c2n1 [Compound 27, 6-[(2R,3S)-2-amino-3-fluorobutyl]-7-bromo-2-ethynyl-N-(thiophen-2-ylmethyl)furo[3,2-d]pyrimidin-4-amine] | 6.30 to 7.00 | 6.30 to 7.00 | 6.30 to 7.00 |
| C#Cc1nc(NCc2ccco2)c2oc(C[C@@H](N)[C@H](C)F)c(Br)c2n1 [Compound 28, 2-[(2R,3S)-2-amino-3-fluoro-butyl]-3-bromo-5-ethynyl-7-(furfurylamino)-1-oxa-4,6-diazaindene] | 6.30 to 7.00 | 6.30 to 7.00 | 6.30 to 7.00 |
| Cc1c(C[C@H](C)N)oc2c(NCc3ccco3)nc(Cl)nc12 [Compound 8, 2-[(S)-2-aminopropyl]-5-chloro-7-(furfurylamino)-3-methyl-1-oxa-4,6-diaza-indene] | 5.30 to 6.30 | 5.30 to 6.30 | – |
| C/C=C/c1cc2nc(Cl)nc(NCc3ccccc3)c2o1 [Compound 5, N-benzyl-2-chloro-6-(prop-1-en-1-yl)furo[3,2-d]pyrimidin-4-amine] | 4.40 to 5.00 | 4.40 to 5.00 | – |
| CC(N)Cc1cc2nc(Cl)nc(NCc3ccccc3)c2o1 (centres unmarked) [Compound 2, 2-(2-aminopropyl)-7-benzyl-amino-5-chloro-1-oxa-4,6-diazaindene] | 4.40 to 5.00 | 4.40 to 5.00 | – |
| Cc1c(C[C@H](C)N)oc2c(NCc3cccs3)nc(Cl)nc12 [Compound 11, 2-[(S)-2-aminopropyl]-5-chloro-3-methyl-7-thenyl-amino-1-oxa-4,6-diaza-indene] | 5.30 to 6.30 | 5.30 to 6.30 | – |
| C#Cc1nc(NCc2cccs2)c2oc(C[C@@H](N)[C@H](C)F)c(C#C)c2n1 [Compound 26] | 6.30 to 7.00 | 6.30 to 7.00 | 6.30 to 7.00 |
| Clc1nc(NCc2ccncc2)c2occc2n1 [Compound 3, [(4-pyridyl)methyl](5-chloro-1-oxa-4,6-diaza-7-indenyl)-amine] | 4.40 to 5.00 | 4.40 to 5.00 | – |
| Cc1coc2c(NCc3ccco3)nc(Cl)nc12 [Compound 10, (furfuryl)(5-chloro-3-methyl-1-oxa-4,6-diaza-7-indenyl)-amine] | 5.30 to 6.30 | 5.30 to 6.30 | – |
| C[C@H](F)[C@H](N)Cc1oc2c(NCc3cccs3)nc(Cl)nc2c1Cl [Compound 17, 2-[(2R,3S)-2-amino-3-fluoro-butyl]-3,5-dichloro-7-thenyl-amino-1-oxa-4,6-diazaindene] | 6.30 to 7.00 | 6.30 to 7.00 | 6.30 to 7.00 |
| C[C@H](F)[C@H](N)Cc1oc2c(NCc3ccncc3)nc(Cl)nc2c1Br [Compound 20, 2-[(2R,3S)-2-amino-3-fluoro-butyl]-3-bromo-5-chloro-7-{[(4-pyridyl)methyl]amino}-1-oxa-4,6-diazaindene] | 7.00 to 11.00 | 6.30 to 7.00 | 7.00 to 11.00 |
